Data reported in patent US20240158447A1, “PEPTIDES FOR USE IN THE TREATMENT OR PREVENTION OF MYOCARDIAL DAMAGE” (THE UNIVERSITY OF WESTERN AUSTRALIA, priority 2020, published 2024).

Assays:
cTnI.2 wt myocytes [1] = test: Flavoprotein oxidation response to BayK(−), wt myocytes (Example 10); assay type: cell-based, mouse; settings: 1 μM peptide 20 min, 10 μM BayK(−), FIG. 10A
Method: (§1) In this experiment wt myocytes were pre-exposed to 0.1, 0.5 or 1 μM for 20 min and assessed changes in flavoprotein oxidation and ψm.
(§2) Measurement of mitochondrial flavoprotein oxidation: Flavoprotein autofluorescence was used to measure flavoprotein oxidation based on previously described methods (Yaniv Y, Juhaszova M, Lyashkov A E, Spurgeon H A, Sollott S J, Lakatta E G. Ca2+-regulated-cAMP/PKA signaling in cardiac pacemaker cells links ATP supply to demand. J Mol Cell Cardiol. 2011; 51(5):740-8). […] Fluorescent images were acquired at 1 min intervals with 200 ms exposure. Metamorph 6.3 (Version 7.10.3) was used to quantify the signal by manually tracing myocytes. An equivalent region not containing cells was used as background and was subtracted. Fluorescence values recorded over 5 min before and 5 min after addition of drugs were averaged and alterations in fluorescent ratios reported as the percentage increase from the basal average. FCCP (50 μM) and NaCN (40 mM) was added at the end of each experiment to achieve a respective maximal and minimal fluorescence value indicative of maximal and minimal flavoprotein oxidation.
The ICA-L agonist BayK(−) was used to activate the channel and assess mitochondrial function. […] FIG. 10 presents the mean+/−SEM of flavoprotein fluorescence from cTnI.2 wt and cTnI-G2035 mutant myocytes before and after exposure to 10 μM BayK(−) in the presence of 1 μM AID(S)-TAT, and increasing concentrations of variant peptides as indicated. N=no. of animals, n=no. of cardiomyocytes. P values shown compared with AID(S)-TAT as determined by the Kruskal-Wallis test.

cTnI.2 wt myocytes [2] = test: Mitochondrial membrane potential (JC-1) response to BayK(−), wt myocytes (Example 10); assay type: cell-based, mouse; settings: 0.5 μM peptide, calcium-free, FIG. 11A
Method: as §1
Measurement of mitochondrial membrane potential: The fluorescent indicator 5,5′,6,6′-tetrachloro1,1′,3,3′-tetraethylbenzimidazolylcarbocyanine iodide (JC-1) was used to measure mitochondrial membrane potential (ψm) as previously described (Viola H M, Arthur P G, Hool L C. Transient exposure to hydrogen peroxide causes an increase in mitochondria-derived superoxide as a result of sustained alteration in L-type Ca2+ channel function in the absence of apoptosis in ventricular myocytes. Circ Res. 2007; 100(7):1036-44). […] Images were acquired at 2 min intervals with 50 ms exposure. Metamorph 6.3 (Version 7.10.3) was used to quantify the signal by manually tracing myocytes. An equivalent region not containing cells was used as background and was subtracted. The 580 nm/535 nm ratiometric fluorescence values recorded over 6 min before and 4 min after addition of drugs were averaged and alterations in fluorescent ratios reported as the percentage increase from the basal average. […] In addition, individual 580 and 535 signals were assessed in each experiment to determine whether the fluorescent indicator was accurately measuring ψm. […]
Based on results obtained from in vitro assessment of flavoprotein oxidation, the effect of 0.5 μM AID-TAT variants on changes in mitochondrial membrane potential (ψm) was further explored. Experiments were performed using JC-1 fluorescence under calcium-free conditions as previously described (Viola H, Johnstone V, Cserne Szappanos H, Richman T, Tsoutsman T, Filipovska A, et al. The L-type Ca(2+) channel facilitates abnormal metabolic activity in the cTnI-G2035 mouse model of hypertrophic cardiomyopathy. J Physiol. 2016; 594(14):4051-70; Viola H M, Shah A A, Johnstone V P A, Cserne Szappanos H, Hodson M P, Hool L C. Characterization and validation of a preventative therapy for hypertrophic cardiomyopathy in a murine model of the disease. Proc Natl Acad Sci U S A. 2020; 117(37):23113-24). […]

[3] = tested on: cTnI-G203S mutant myocytes; test: Mitochondrial membrane potential (JC-1) response to BayK(−), cTnI-G203S myocytes (Example 10); assay type: cell-based, mouse; settings: for BayK(−) induced increase in ψm (JC-1 fluorescence): 0.5 μM peptide, calcium-free, FIG. 11B
Method: as §1
Measurement of mitochondrial membrane potential: The fluorescent indicator 5,5′,6,6′-tetrachloro1,1′,3,3′-tetraethylbenzimidazolylcarbocyanine iodide (JC-1) was used to measure mitochondrial membrane potential (ψm) as previously described (Viola H M, Arthur P G, Hool L C. Transient exposure to hydrogen peroxide causes an increase in mitochondria-derived superoxide as a result of sustained alteration in L-type Ca2+ channel function in the absence of apoptosis in ventricular myocytes. Circ Res. 2007; 100(7):1036-44). […] Images were acquired at 2 min intervals with 50 ms exposure. Metamorph 6.3 (Version 7.10.3) was used to quantify the signal by manually tracing myocytes. An equivalent region not containing cells was used as background and was subtracted. The 580 nm/535 nm ratiometric fluorescence values recorded over 6 min before and 4 min after addition of drugs were averaged and alterations in fluorescent ratios reported as the percentage increase from the basal average. To confirm that the signal was indicative of ψm, 40 mM NaCN was added at the end of each experiment to collapse ψm. In addition, individual 580 and 535 signals were assessed in each experiment to determine whether the fluorescent indicator was accurately measuring ψm. For calcium-free experiments, cells were exposed to calcium-free HBS (supplemented with 3 mM EGTA and 200 nM JC-1) for at least 3 h prior to measuring changes in ψm.
Based on results obtained from in vitro assessment of flavoprotein oxidation, the effect of 0.5 μM AID-TAT variants on changes in mitochondrial membrane potential (ψm) was further explored. Experiments were performed using JC-1 fluorescence under calcium-free conditions as previously described (Viola H, Johnstone V, Cserne Szappanos H, Richman T, Tsoutsman T, Filipovska A, et al. The L-type Ca(2+) channel facilitates abnormal metabolic activity in the cTnI-G2035 mouse model of hypertrophic cardiomyopathy. J Physiol. 2016; 594(14):4051-70; Viola H M, Shah A A, Johnstone V P A, Cserne Szappanos H, Hodson M P, Hool L C. Characterization and validation of a preventative therapy for hypertrophic cardiomyopathy in a murine model of the disease. Proc Natl Acad Sci U S A. 2020; 117(37):23113-24). […] FIG. 11 presents the mean+/−SE of JC-1 fluorescence from cTnI.2 wt and cTnI-G203S mutant myocytes before and after exposure to 10 μM BayK(−) in the presence of 1 μM AID(S)-TAT, and 0.5 μM of variant peptides as indicated. N=no. of animals, n=no. of cardiomyocytes. P values shown compared with AID(S)-TAT as determined by the Kruskal-Wallis test.

cTnI-G203S mice [4] = test: Echocardiography of pre-cardiomyopathic cTnI-G203S mice (Example 15); assay type: in vivo, mouse; settings: 5 μM, 3×/wk/5 wk; versus AID(S)-TAT; FIG. 15
Source text: Twenty to thirty week-old male mice expressing the human cTnI gene encoding the human disease-causing cTnI-G203S were generated and used for the in vivo studies. By way of background, the mice develop hallmark features of HCM between 20 and 25 weeks (Viola H, Johnstone V, Cserne Szappanos H, Richman T, Tsoutsman T, Filipovska A, et al. The L-type Ca(2+) channel facilitates abnormal metabolic activity in the cTnI-G2035 mouse model of hypertrophic cardiomyopathy. J Physiol. 2016; 594(14):4051-70; Viola H M, Shah A A, Johnstone V P A, Cserne Szappanos H, Hodson M P, Hool L C. Characterization and validation of a preventative therapy for hypertrophic cardiomyopathy in a murine model of the disease. Proc Nati Aced Sci U S A. 2020; 117(37):23113-24; Tsoutsman T, Chung J, Doolan A, Nguyen L, Williams IA, Tu E, et al. Molecular insights from a novel cardiac troponin I mouse model of familial hypertrophic cardiomyopathy. J Mol Cell Cardiol. 2006; 41(4):623-32). Age-matched male mice expressing the normal human troponin I gene were used as controls and indicated as wild-type (wt). For in vivo studies, 20-week old cTnI-G203S mice were treated with 10 μM AID(S)-TAT (2 mg/kg) or 5 μM AID-TAT mutant peptides via intraperitoneal injection, 3 times per week for a total duration of 5 weeks. The peptide was dissolved in phosphate buffered saline solution (PBS), and the total amount of the 10 μM AID-TAT mutant peptides administered over 5 weeks was 0.9 mg. The total amount of the 5 μM AID-TAT mutant peptides administered over 5 weeks was 0.45 mg Male mice were utilized to eliminate potential differences in responses due to gender. The number of mice used is indicated by N.
Echocardiographic studies to measure left ventricular function were performed on mice under light methoxyflurane anaesthesia with the use of an i13L probe on a Vivid™ 7 IQ ultrasound system (GE Healthcare, Little Chalfont, UK) as previously described (Viola H, Johnstone V, Cserne Szappanos H, Richman T, Tsoutsman T, Filipovska A, et al. The L-type Ca(2+) channel facilitates abnormal metabolic activity in the cTnI-G2035 mouse model of hypertrophic cardiomyopathy. J Physiol. 2016; 594(14):4051-70; Viola H M, Shah A A, Johnstone V P A, Cserne Szappanos H, Hodson M P, Hool L C. Characterization and validation of a preventative therapy for hypertrophic cardiomyopathy in a murine model of the disease. Proc Natl Acad Sci U S A. 2020; 117(37):23113-24; Viola H M, Johnstone V P A, Cserne Szappanos H, Richman T R, Tsoutsman T, Filipovska A, et al. The Role of the L-Type Ca(2+) Channel in Altered Metabolic Activity in a Murine Model of Hypertrophic Cardiomyopathy. JACC Basic Transl Sci. 2016; 1(1-2):61-72). Each N represents the average of quantitative measurements from wt or cTnI-G203S mice for each treatment group.

[5] = tested on: cTnI-G203S mutant myocytes; test: Flavoprotein oxidation response to BayK(−), cTnI-G203S myocytes (Example 10); assay type: cell-based, mouse; settings: 0.5 μM peptide, 10 μM BayK(−), FIG. 10D
Method: as §1
as §2, with “An equivalent region not containing cells was used as background and was subtracted.” left out
The ICA-L agonist BayK(−) was used to activate the channel and assess mitochondrial function. […] FIG. 10 presents the mean+/−SEM of flavoprotein fluorescence from cTnI.2 wt and cTnI-G2035 mutant myocytes before and after exposure to 10 μM BayK(−) in the presence of 1 μM AID(S)-TAT, and increasing concentrations of variant peptides as indicated. […]

cTnI-G203S mice [6] = test: Heart weight to body weight ratio of treated cTnI-G203S mice; assay type: in vivo, mouse; settings: 5 μM, 3×/wk/5 wk; compared with cTnI-G203S AID(S)-TAT; FIG. 16
Method: The effect of treatment of the mice with peptides on the development of hypertrophy assessed as changes in heart weight to body weight ratio was also examined. […] FIG. 16 presents the mean±SEM of heart weight to body weight ratio measurements from wt and cTnI-G203S mice treated with 10 μM AID(S)-TAT, 10 μM AID-TAT, 5 μM AIDP7-TAT, 5 μM AIDP14-TAT, 5 μM AIDP15-TAT or 5 μM AIDP16-TAT. n=number of mice as indicated. *P<0.05, **P<0.01 compared with cTnI-G203S AID(S)-TAT as determined by Kruskal-Wallis tests.

AIDP15-TAT: QQEEEDEKGYLDWITQAE with TAT sequence
BayK(−) induced increase in flavoprotein oxidation (cTnI.2 wt myocytes [1]): just as effective at attenuating the response in wt myocytes as the original AID-TAT | BayK(−) induced increase in ψm (JC-1 fluorescence) (cTnI.2 wt myocytes [2]): significantly attenuated the response | BayK(−) induced increase in ψm (JC-1 fluorescence) [3]: significantly attenuated the response | EF, ejection fraction (cTnI-G203S mice [4]): effectively restored | FS, fractional shortening (cTnI-G203S mice [4]): effectively restored | IVSd, intraventricular septum in diastole (cTnI-G203S mice [4]): effectively restored | IVSs, intraventricular septum in systole (cTnI-G203S mice [4]): effectively restored | LVPWs, left ventricular posterior wall in systole (cTnI-G203S mice [4]): effectively restored

AIDP14-TAT: QQEEEDLKGYLDWITQAE with TAT sequence
BayK(−) induced increase in flavoprotein oxidation [5]: significantly attenuated increases in flavoprotein oxidation resulting from BayK(−) exposure | BayK(−) induced increase in ψm (JC-1 fluorescence) (cTnI.2 wt myocytes [2]): significantly attenuated the response | BayK(−) induced increase in ψm (JC-1 fluorescence) [3]: significantly attenuated the response | normalising mitochondrial metabolic activity (in vitro, overall) ([3]; flavoprotein oxidation and JC-1 data together): most effective in normalising mitochondrial metabolic activity | EF, ejection fraction (cTnI-G203S mice [4]): effectively restored | FS, fractional shortening (cTnI-G203S mice [4]): effectively restored | IVSd, intraventricular septum in diastole (cTnI-G203S mice [4]): effectively restored | IVSs, intraventricular septum in systole (cTnI-G203S mice [4]): effectively restored | LVEDd, left ventricular end diameter during diastole (cTnI-G203S mice [4]): trend toward increased LVEDd | LVEDs, left ventricular end diameter during systole (cTnI-G203S mice [4]): effectively restored | LVPWd, left ventricular posterior wall in diastole (cTnI-G203S mice [4]): effectively restored | LVPWs, left ventricular posterior wall in systole (cTnI-G203S mice [4]): effectively restored | heart weight to body weight ratio (cTnI-G203S mice [6]): significantly decreased heart weight/body weight
